Data taken from ChEMBL document CHEMBL1221295 (Bioorg Med Chem, 2010).

How the values were obtained:
[1] = molecular target: T1, Melatonin receptor type 1B (Homo sapiens, UniProt P49286); experiment: Displacement of [125I]iodomelatonin from human cloned MT2 receptor expressed in […] NIH3T3 cells after 90 mins; type: cell-based
T1 sequence (P49286 whole entry): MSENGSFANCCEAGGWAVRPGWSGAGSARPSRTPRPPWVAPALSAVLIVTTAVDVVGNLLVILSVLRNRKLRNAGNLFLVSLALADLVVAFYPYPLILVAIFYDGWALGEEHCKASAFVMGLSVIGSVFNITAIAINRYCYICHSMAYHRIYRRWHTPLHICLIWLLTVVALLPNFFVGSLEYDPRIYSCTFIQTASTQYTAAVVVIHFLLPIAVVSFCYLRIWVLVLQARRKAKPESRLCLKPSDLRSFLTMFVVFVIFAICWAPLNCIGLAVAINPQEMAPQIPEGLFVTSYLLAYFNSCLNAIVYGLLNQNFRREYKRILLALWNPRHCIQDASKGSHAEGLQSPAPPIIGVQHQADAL

[2] = molecular target: T2, Melatonin receptor type 1B (Homo sapiens) (UniProt P49286); experiment: Intrinsic activity at human cloned MT2 receptor expressed in […] NIH3T3 cells assessed as increase of [35S]GTPgammaS binding relative to melatonin; type: functional, cell-based
T2 sequence (whole entry): T1 sequence (P49286 whole entry)

[3] = molecular target: T3, Melatonin receptor type 1A (Homo sapiens, UniProt P48039); experiment: Displacement of [125I]iodomelatonin from human cloned MT1 receptor expressed in […] NIH3T3 cells after 90 mins; type: cell-based
T3 sequence (P48039 whole entry): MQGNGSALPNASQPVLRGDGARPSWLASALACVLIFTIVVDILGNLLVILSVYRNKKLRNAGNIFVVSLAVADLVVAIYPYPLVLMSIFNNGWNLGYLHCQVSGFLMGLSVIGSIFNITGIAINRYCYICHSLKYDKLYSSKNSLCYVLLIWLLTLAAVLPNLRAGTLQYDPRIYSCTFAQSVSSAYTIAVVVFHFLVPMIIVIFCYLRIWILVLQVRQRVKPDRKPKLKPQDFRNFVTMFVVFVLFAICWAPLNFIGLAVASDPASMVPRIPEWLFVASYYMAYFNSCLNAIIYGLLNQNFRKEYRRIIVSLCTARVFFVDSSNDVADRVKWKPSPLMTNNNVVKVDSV

[4] = molecular target: T3, Melatonin receptor type 1A; experiment: Intrinsic activity at human cloned MT1 receptor expressed in […] NIH3T3 cells assessed as increase of [35S]GTPgammaS binding relative to melatonin; type: functional, cell-based

| Compound | Ki [1] [nM] | Ratio [2] | Ki [3] [nM] | Ratio [4] |
| --- | --- | --- | --- | --- |
| COc1cccc(OCC(C)NC(C)=O)c1 (stereo unspecified) | 347 | 0.71 | 355 | 0.63 |
| CC(=O)N[C@H](C)CSc1ccccc1 | 64600 | -0.04 | 74100 | -0.05 |
| COc1cccc(SC[C@@H](C)NC(C)=O)c1 | 12300 | 0.32 | 11500 | 0.29 |
| COc1cccc(OC[C@@H](C)NC(C)=O)c1 | 4900 | 0.43 | 36300 | 0.35 |
| COc1cccc(OC(C)CNC(=O)C2CC2)c1 (stereo unspecified) | 12.9 | 1.02 | 0.933 | 0.91 |
| COc1ccc(OC(C)CNC(C)=O)cc1 (stereo unspecified) | 12600 | 0.13 | 42700 | 0.15 |
| COc1ccccc1SCCNC(C)=O | 501 | 0.56 | 3630 | 0.27 |
| COc1ccc(SCCNC(C)=O)cc1 | 2400 | 0.56 | 2820 | 0.48 |
| COc1cccc(S[C@H](C)CNC(C)=O)c1 | 661 | – | 2750 | – |
| COc1cccc(SC(C)CNC(C)=O)c1 (stereo unspecified) | 263 | – | 110 | – |
| COc1ccccc1OC(C)CNC(C)=O (stereo unspecified) | 5130 | 0.45 | 10500 | 0.19 |
| CC(=O)NCCSc1ccccc1 | 339 | 0.5 | 3800 | 0.22 |
| COc1cccc(O[C@H](C)CNC(C)=O)c1 | 110 | 0.93 | 49 | 0.79 |
| COc1cccc(OC[C@H](C)NC(C)=O)c1 | 302 | 0.8 | 347 | 0.75 |
| CCCC(=O)NCC(C)Oc1cccc(OC)c1 (stereo unspecified) | 3.72 | 1.12 | 4.17 | 1.04 |
| CC(=O)N[C@H](C)COc1ccccc1 | 53700 | 0.11 | 63100 | 0.17 |
| CC(=O)NCCOc1ccccc1 | 5500 | 0.5 | 11500 | 0.31 |
| COc1cccc(SC[C@H](C)NC(C)=O)c1 | 263 | 0.5 | 479 | 0.3 |
| COc1cccc(OC(C)CNC(C)=O)c1 (stereo unspecified) | 9.55 | 1.01 | 3.63 | 1.01 |
| COc1cccc(O[C@@H](C)CNC(=O)C2CC2)c1 | 4.37 | 1.26 | 0.724 | 1.01 |
| COc1cccc(SCC(C)NC(C)=O)c1 (stereo unspecified) | 1320 | – | 12000 | – |

| Compound | Ki [1] [nM] | Ratio [2] | Ki [3] [nM] | Ratio [4] |
| --- | --- | --- | --- | --- |
| CC(=O)NC(C)CSc1ccccc1 (stereo unspecified) | 6760 | 0.2 | 31600 | 0 |
| CC(=O)N[C@@H](C)COc1ccccc1 | 4570 | 0.26 | 20900 | 0.05 |
| CC(=O)NC(C)COc1ccccc1 (stereo unspecified) | 3800 | 0.15 | 12000 | 0.04 |
| CCCC(=O)NC[C@@H](C)Oc1cccc(OC)c1 | 67.6 | 0.86 | 81.3 | 1.06 |
| COc1ccccc1OCCNC(C)=O | 6610 | 0.22 | 37200 | 0.23 |
| COc1cccc(S[C@H](C)CNC(=O)C2CC2)c1 | 49 | 0.59 | 120 | 0.49 |
| COc1cccc(SC(C)CNC(=O)C2CC2)c1 (stereo unspecified) | 9.77 | 0.63 | 8.51 | 0.77 |
| COc1cccc(O[C@@H](C)CNC(C)=O)c1 | 4.68 | 1.09 | 1.7 | 1.01 |
| COc1ccc(OCCNC(C)=O)cc1 | 45700 | 0.44 | 61700 | 0.26 |
| COc1cccc(SCCNC(C)=O)c1 | 39.8 | 0.81 | 55 | 0.85 |
| COc1cccc(OCCNC(C)=O)c1 | 67.6 | 0.8 | 40.7 | 0.81 |
| CCCC(=O)NC[C@H](C)Sc1cccc(OC)c1 | 6.03 | 0.96 | 3.89 | 0.99 |
| CC(=O)N[C@@H](C)CSc1ccccc1 | 4370 | 0.25 | 3720 | -0.07 |
| COc1cccc(S[C@@H](C)CNC(=O)C2CC2)c1 | 6.76 | 0.8 | 5.37 | 0.8 |
| CCCC(=O)NC[C@H](C)Oc1cccc(OC)c1 | 2.75 | 1.07 | 3.09 | 1.01 |
| COc1cccc(S[C@@H](C)CNC(C)=O)c1 | 7.08 | – | 5.75 | – |
| CC(=O)NCC(C)Oc1ccccc1 (stereo unspecified) | 1150 | 0.69 | 1380 | 0.48 |
| CCCC(=O)NC[C@@H](C)Sc1cccc(OC)c1 | 26.3 | 0.64 | 70.8 | 0.59 |
| COc1cccc(O[C@H](C)CNC(=O)C2CC2)c1 | 20.9 | 0.77 | 7.76 | 0.9 |
| CCCC(=O)NCC(C)Sc1cccc(OC)c1 (stereo unspecified) | 5.01 | 0.99 | 9.12 | 1.02 |
